Source: patent publication EP1582519A2, “Heteropolycyclic compounds and their use as metabotropic glutamate receptor antagonists” (NPS PHARMACEUTICALS, INC., priority 1999, dated 2001)

Target: native receptor, mGluR5d (Rattus norvegicus, UniProt P31424)
Assay: Antagonist activity on the native receptor mGluR5d
Assay type: cell-based
Experimental: Primary astrocyte cultures were prepared from 3-5 day old Sprague-Dawley rat pups using a modification of Miller (Miller et al, J. Neuroscience, 15(9): 6103-6109, 1995). In brief, primary cultures were plated on poly-L lysine coated flasks in Dulbecco's modified Eagle's medium (DMEM) containing fetal calf serum (FCS). After 6 days, cell cultures were shaken over night at 280 rpm, then transferred to astrocyte-defined media (ADM) containing growth factors that up-regulate the expression of mGluR5 (Miller et al., 1995). […] For FLIPR analysis, cells were seeded on poly-D lysine coated clear bottom 96-well plates with black sides and analysis of [Ca^2+]i mobilization was performed 3 days following the growth factor up-regulation. Cell cultures in the 96-well plates were loaded with a 4 µM solution of acetoxymethyl ester form of the fluorescent calcium indicator fluo-3 (Molecular Probes, Eugene, Oregon) in 0.01 % pluronic. All assays were performed in a buffer containing 127 mM NaCl, 5 mM KCl, 2 mM MgCl2, 0.7 mM NaH2PO4, 2 mM CaCl2, 0.422 mg/ml NaHCO3, 2.4 mg/ml HEPES, 1.8 mg/ml glucose and 1 mg/ml BSA Fraction IV (pH 7.4). […] After each addition the fluorescence signal was sampled 50 times at 1 second intervals followed by 3 samples at 5 second intervals. Responses were measured as the peak height of the response within the sample period. […]

Sequence of native receptor, mGluR5d (P31424 21-1203): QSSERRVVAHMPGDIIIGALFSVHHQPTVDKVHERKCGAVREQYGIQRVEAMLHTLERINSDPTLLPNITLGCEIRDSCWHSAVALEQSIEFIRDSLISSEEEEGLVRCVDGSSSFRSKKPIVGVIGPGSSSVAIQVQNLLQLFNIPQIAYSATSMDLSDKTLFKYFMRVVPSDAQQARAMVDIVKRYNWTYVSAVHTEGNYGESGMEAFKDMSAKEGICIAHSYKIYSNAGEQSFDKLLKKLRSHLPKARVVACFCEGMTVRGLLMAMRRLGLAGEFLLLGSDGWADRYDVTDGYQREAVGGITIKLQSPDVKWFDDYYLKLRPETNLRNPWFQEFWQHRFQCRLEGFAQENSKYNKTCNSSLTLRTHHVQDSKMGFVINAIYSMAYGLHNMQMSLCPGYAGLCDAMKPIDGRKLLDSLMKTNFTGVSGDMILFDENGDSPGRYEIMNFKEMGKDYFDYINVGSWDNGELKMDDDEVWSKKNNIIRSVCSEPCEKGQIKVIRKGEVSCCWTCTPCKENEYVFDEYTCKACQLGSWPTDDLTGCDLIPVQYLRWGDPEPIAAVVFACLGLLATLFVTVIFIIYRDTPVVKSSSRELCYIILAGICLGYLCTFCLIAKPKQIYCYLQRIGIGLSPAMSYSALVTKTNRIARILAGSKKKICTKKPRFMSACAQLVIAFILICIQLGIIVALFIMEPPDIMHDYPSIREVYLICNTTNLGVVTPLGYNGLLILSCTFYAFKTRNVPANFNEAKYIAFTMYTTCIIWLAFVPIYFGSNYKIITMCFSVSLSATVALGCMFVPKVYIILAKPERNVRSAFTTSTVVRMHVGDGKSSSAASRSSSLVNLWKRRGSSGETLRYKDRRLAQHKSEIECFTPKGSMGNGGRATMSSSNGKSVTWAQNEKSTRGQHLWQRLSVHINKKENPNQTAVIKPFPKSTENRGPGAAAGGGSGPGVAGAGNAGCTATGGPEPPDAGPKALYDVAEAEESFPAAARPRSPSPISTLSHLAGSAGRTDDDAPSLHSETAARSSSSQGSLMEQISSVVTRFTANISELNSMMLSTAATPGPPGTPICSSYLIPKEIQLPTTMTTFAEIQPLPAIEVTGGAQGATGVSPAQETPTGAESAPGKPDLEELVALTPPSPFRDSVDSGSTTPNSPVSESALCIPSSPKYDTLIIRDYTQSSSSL

| SMILES | IC50 |
| --- | --- |
| N#Cc1cccc(-c2nc(-c3ccccn3)no2)c1 [B21, 3-(2-pyridyl)-5-(3-cyanophenyl)-1,2,4-oxadiazole] | 121 nM |
| N#Cc1cccc(-c2nc(-c3ccccn3)co2)c1 [B52, 2-[3-cyanophenyl]-4-[pyridin-2-yl]-1,3-oxazole] | 74 nM |
